From the supplement of paper PMC6045584
± gives the standard deviation of the averaged measurements.

Assays:
EVEROLIMUS = compound: CO[C@H]1C[C@@H]2CC[C@@H](C)[C@@](O)(O2)C(=O)C(=O)N2CCCC[C@H]2C(=O)O[C@H]([C@H](C)C[C@@H]2CC[C@@H](OCCO)[C@H](OC)C2)CC(=O)[C@H](C)/C=C(\C)[C@@H](O)[C@@H](OC)C(=O)[C@H](C)C[C@H](C)/C=C/C=C/C=C/1C [EVEROLIMUS]; assay: surviving fraction relative to DMSO-only wells; higher = less growth inhibition; conditions: exposure time: 5 days
Outline: (§1)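 Luminescence normalised to the median of DMSO-only wells defines surviving fraction, with viability read by CellTiter-Glo. Signal was recorded after 10 minutes at room temperature, once log-phase tumour cell lines seeded at 250–500 cells per well in 384-well plates had spent 24 hours settling and then five days under continuous exposure to inhibitors at 0.5, 1, 5, 10, 50, 100, 500 and 1000 nM.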

AZD4547 = compound: COc1cc(CCc2cc(NC(=O)c3ccc(N4CC(C)NC(C)C4)cc3)n[nH]2)cc(OC)c1 [AZD4547]; assay: as above; conditions: exposure time: 5 days
Outline: as §1

Test System	surviving fraction (EVEROLIMUS; 0.5 nM)	surviving fraction (EVEROLIMUS; 1 nM)	surviving fraction (EVEROLIMUS; 5 nM)	surviving fraction (EVEROLIMUS; 10 nM)	surviving fraction (EVEROLIMUS; 50 nM)	surviving fraction (EVEROLIMUS; 100 nM)	surviving fraction (EVEROLIMUS; 500 nM)	surviving fraction (EVEROLIMUS; 1000 nM)	surviving fraction (AZD4547; 0.5 nM)	surviving fraction (AZD4547; 1 nM)	surviving fraction (AZD4547; 5 nM)	surviving fraction (AZD4547; 10 nM)	surviving fraction (AZD4547; 50 nM)	surviving fraction (AZD4547; 100 nM)	surviving fraction (AZD4547; 500 nM)	surviving fraction (AZD4547; 1000 nM)
MDAMB231 BREAST	0.779 ± 0.021	0.73 ± 0.028	0.621 ± 0.029	0.5901 ± 0.005	0.591 ± 0.022	0.575 ± 0.019	0.541 ± 0.038	0.521 ± 0.038	0.973 ± 0.018	1.02 ± 0.025	1.009 ± 0.0064	1.02 ± 0.033	1.02 ± 0.019	1.06 ± 0.032	1.06 ± 0.035	1.06 ± 0.028
MDAMB361 BREAST	0.739 ± 0.061	0.815 ± 0.098	0.697 ± 0.0076	0.631 ± 0.049	0.62 ± 0.028	0.584 ± 0.0067	0.547 ± 0.015	0.543 ± 0.039	0.908 ± 0.033	0.925 ± 0.028	1.04 ± 0.12	0.972 ± 0.064	0.967 ± 0.067	0.993 ± 0.061	0.851 ± 0.035	0.76 ± 0.052
MDAMB436 BREAST	0.7 ± 0.022	0.655 ± 0.044	0.598 ± 0.027	0.606 ± 0.039	0.577 ± 0.025	0.589 ± 0.046	0.633 ± 0.057	0.558 ± 0.061	1.05 ± 0.053	0.9823 ± 0.0041	1.03 ± 0.12	0.942 ± 0.08	0.978 ± 0.059	0.958 ± 0.062	1.07 ± 0.023	1.02 ± 0.024
MDAMB453 BREAST	0.941 ± 0.11	0.75 ± 0.07	0.461 ± 0.0079	0.369 ± 0.037	0.339 ± 0.035	0.305 ± 0.018	0.301 ± 0.024	0.284 ± 0.011	1.02 ± 0.074	1.094 ± 0.01	1.106 ± 0.004	1.11 ± 0.056	1.1 ± 0.019	0.825 ± 0.021	0.565 ± 0.021	0.585 ± 0.025
MDAMB468 BREAST	0.759 ± 0.076	0.669 ± 0.043	0.599 ± 0.031	0.546 ± 0.045	0.55 ± 0.017	0.601 ± 0.0052	0.551 ± 0.044	0.522 ± 0.066	1.04 ± 0.11	1.02 ± 0.055	1.13 ± 0.057	1.14 ± 0.062	1.02 ± 0.09	1.16 ± 0.096	1.06 ± 0.019	1.14 ± 0.042
MFM223 BREAST	0.953 ± 0.069	0.912 ± 0.077	0.73 ± 0.049	0.749 ± 0.082	0.669 ± 0.053	0.638 ± 0.068	0.706 ± 0.076	0.754 ± 0.053	1.02 ± 0.11	1.03 ± 0.034	0.616 ± 0.056	0.374 ± 0.041	0.244 ± 0.018	0.254 ± 0.015	0.298 ± 0.015	0.3 ± 0.021
MG63 BONE	0.954 ± 0.019	0.8723 ± 0.0081	0.747 ± 0.027	0.6393 ± 0.0057	0.594 ± 0.026	0.57 ± 0.02	0.481 ± 0.021	0.4813 ± 0.0035	0.9447 ± 0.006	0.992 ± 0.012	0.929 ± 0.033	0.879 ± 0.048	0.662 ± 0.015	0.63 ± 0.041	0.576 ± 0.02	0.572 ± 0.018
MHM BONE	0.926 ± 0.063	0.864 ± 0.049	0.743 ± 0.057	0.696 ± 0.059	0.664 ± 0.029	0.672 ± 0.019	0.63 ± 0.011	0.638 ± 0.032	0.961 ± 0.016	1 ± 0.006	0.995 ± 0.016	0.993 ± 0.021	0.776 ± 0.014	0.694 ± 0.0087	0.587 ± 0.0075	0.582 ± 0.011
NCIH441 LUNG	1.15 ± 0.031	1.08 ± 0.098	1.183 ± 0.0021	1.04 ± 0.049	0.864 ± 0.097	1.03 ± 0.082	0.933 ± 0.056	0.876 ± 0.076	0.977 ± 0.026	1.09 ± 0.035	1.06 ± 0.011	1.06 ± 0.066	1.01 ± 0.038	1.02 ± 0.026	0.934 ± 0.17	0.929 ± 0.093
NOS1 BONE	0.77 ± 0.073	0.655 ± 0.039	0.607 ± 0.022	0.536 ± 0.048	0.491 ± 0.03	0.461 ± 0.052	0.415 ± 0.019	0.362 ± 0.023	0.971 ± 0.12	1.07 ± 0.13	0.913 ± 0.013	0.937 ± 0.064	0.87 ± 0.093	0.824 ± 0.055	0.385 ± 0.025	0.187 ± 0.036
NY BONE	0.789 ± 0.012	0.766 ± 0.024	0.729 ± 0.01	0.688 ± 0.019	0.692 ± 0.013	0.707 ± 0.015	0.644 ± 0.032	0.6403 ± 0.0042	0.984 ± 0.052	1.03 ± 0.039	1.03 ± 0.049	0.894 ± 0.02	0.466 ± 0.0057	0.394 ± 0.019	0.359 ± 0.023	0.315 ± 0.026
OS25HAL BONE	0.863 ± 0.044	0.846 ± 0.0091	0.679 ± 0.029	0.622 ± 0.042	0.598 ± 0.014	0.581 ± 0.039	0.546 ± 0.034	0.52 ± 0.022	0.99 ± 0.018	1.02 ± 0.02	1.037 ± 0.0085	1.04 ± 0.012	1.02 ± 0.016	1.036 ± 0.0095	0.948 ± 0.04	0.992 ± 0.018
OSHN BONE	1.06 ± 0.014	1.03 ± 0.038	0.991 ± 0.035	0.983 ± 0.026	1.05 ± 0.054	1.06 ± 0.024	1.04 ± 0.057	1.06 ± 0.023	1.06 ± 0.02	1.09 ± 0.044	1.09 ± 0.044	1.11 ± 0.048	1.07 ± 0.023	1.1 ± 0.044	1.07 ± 0.042	1.06 ± 0.011
PCI30 HEADNECK	0.715 ± 0.07	0.6 ± 0.029	0.52 ± 0.027	0.508 ± 0.02	0.5 ± 0.051	0.508 ± 0.025	0.463 ± 0.03	0.468 ± 0.013	0.998 ± 0.026	0.966 ± 0.082	1.09 ± 0.12	1.09 ± 0.094	1.16 ± 0.061	1.17 ± 0.11	1.1 ± 0.012	0.999 ± 0.07
RDES SOFT TISSUE	1.09 ± 0.067	1.1 ± 0.099	1.11 ± 0.039	1.11 ± 0.087	0.981 ± 0.049	1.03 ± 0.12	1 ± 0.13	1.04 ± 0.063	1.28 ± 0.16	1.29 ± 0.047	1.12 ± 0.084	1.1 ± 0.12	0.835 ± 0.13	0.813 ± 0.14	0.961 ± 0.16	1.04 ± 0.12
S68 BREAST	0.839 ± 0.17	0.547 ± 0.045	0.479 ± 0.048	0.434 ± 0.049	0.356 ± 0.06	0.336 ± 0.043	0.26 ± 0.027	0.285 ± 0.024	0.981 ± 0.08	1.04 ± 0.052	1.02 ± 0.25	1.1 ± 0.18	0.957 ± 0.23	1.53 ± 0.1	1.05 ± 0.035	0.684 ± 0.062
SAOS2 BONE	1.13 ± 0.094	1.12 ± 0.054	1.0323 ± 0.00058	0.943 ± 0.044	0.909 ± 0.048	0.936 ± 0.025	0.826 ± 0.064	0.71 ± 0.049	1.046 ± 0.0017	1.077 ± 0.0081	1.14 ± 0.031	1.17 ± 0.085	1.16 ± 0.054	1.14 ± 0.051	0.92467 ± 0.00058	0.649 ± 0.023
SCC36 HEADNECK	1.07 ± 0.056	1.09 ± 0.14	1.03 ± 0.018	0.899 ± 0.061	1.008 ± 0.0093	0.909 ± 0.097	0.842 ± 0.031	0.733 ± 0.014	0.993 ± 0.053	1.07 ± 0.081	1.18 ± 0.17	1.09 ± 0.21	0.988 ± 0.07	1.01 ± 0.039	0.856 ± 0.029	0.687 ± 0.053
SCC47 HEADNECK	1.02 ± 0.053	1 ± 0.017	1.01 ± 0.053	0.95 ± 0.024	0.961 ± 0.053	0.961 ± 0.043	0.937 ± 0.16	0.843 ± 0.032	0.967 ± 0.14	1.02 ± 0.066	1.02 ± 0.1	1.13 ± 0.069	1.08 ± 0.037	1.09 ± 0.091	1.03 ± 0.078	0.961 ± 0.074
SCC90 HEADNECK	0.857 ± 0.032	0.816 ± 0.08	0.68 ± 0.048	0.643 ± 0.028	0.556 ± 0.019	0.563 ± 0.039	0.522 ± 0.063	0.5257 ± 0.0047	1.07 ± 0.095	1.06 ± 0.11	1.04 ± 0.17	1.09 ± 0.14	1.08 ± 0.038	1.15 ± 0.055	1.04 ± 0.043	1.1 ± 0.11
